In patent US20090305994A1, “Compounds Modulating Vegf Receptor and Uses Thereof” (priority 2005, published 2009):

Tests used:
WKY rats [1] = assay: Implanted Matrigel model in rats; format: in vivo, rat; conditions: subcutaneous plug, one week
Procedure: Implanted Matrigel Model in rats. Each animals was subcutaneously injected with 1 mL Matrigel Matrix High (18-22 mg/mL; Becton Dickinson, Franklin Lakes, N.J.) containing QK, VEGF 15, VEGF 165 (10^-6 M) or saline solution on the back. One week later, Matrigel plugs were removed and fixed in 4% buffered formaldehyde in PBS for histologic analysis using Masson trichrome staining. The capillary-occupied area per field of view from 15 to 20 fields in tissue sections was measured using a computerized digital camera system (Olympus, Melville, N.Y.) and NIH Image 1.61 (NIH, Bethesda, Md.).
We evaluated the proangiogenic effects of QK in vivo using a subcutaneous injection of Matrigel Matrix High (BD Technologies) […] (VEGF 15 10^-7 M), in anesthetized twelve-week-old WKY rats. After one week the plugs were removed and analyzed in gross morphology and capillaries infiltration by CD31/vWF immunostaining. […] After 14 days animals were anesthetized and hindlimbs blood flow (BF) assessed by digital angiographies counting the TIMI Frame score (TFC) needs to the contrast to arrive at the artery dorsal paw (FIG. 5a). BF was also evaluated by dyed beads dilution through injection in abdominal aorta of yellow beads ([…]) (FIG. 5b). By histology on the ischemic and non ischemic anterior tibial muscle, we evaluated capillary density.

KDR = target: T1, KDR (Bos taurus, UniProt A0AAA9SPC9); assay: KDR activation (immunoprecipitation, phospho-tyrosine western blot) in BAEC; format: cell-based, bovine; conditions: 15 minutes of exposure
T1 construct: we immunoprecipitated total KDR and Flt-1 from BAEC whole extracts; endogenous in cells; host or cells: BAEC (bovine aorta endothelial cells, SV40-immortalized)
T1 sequence (A0AAA9SPC9 20-1356): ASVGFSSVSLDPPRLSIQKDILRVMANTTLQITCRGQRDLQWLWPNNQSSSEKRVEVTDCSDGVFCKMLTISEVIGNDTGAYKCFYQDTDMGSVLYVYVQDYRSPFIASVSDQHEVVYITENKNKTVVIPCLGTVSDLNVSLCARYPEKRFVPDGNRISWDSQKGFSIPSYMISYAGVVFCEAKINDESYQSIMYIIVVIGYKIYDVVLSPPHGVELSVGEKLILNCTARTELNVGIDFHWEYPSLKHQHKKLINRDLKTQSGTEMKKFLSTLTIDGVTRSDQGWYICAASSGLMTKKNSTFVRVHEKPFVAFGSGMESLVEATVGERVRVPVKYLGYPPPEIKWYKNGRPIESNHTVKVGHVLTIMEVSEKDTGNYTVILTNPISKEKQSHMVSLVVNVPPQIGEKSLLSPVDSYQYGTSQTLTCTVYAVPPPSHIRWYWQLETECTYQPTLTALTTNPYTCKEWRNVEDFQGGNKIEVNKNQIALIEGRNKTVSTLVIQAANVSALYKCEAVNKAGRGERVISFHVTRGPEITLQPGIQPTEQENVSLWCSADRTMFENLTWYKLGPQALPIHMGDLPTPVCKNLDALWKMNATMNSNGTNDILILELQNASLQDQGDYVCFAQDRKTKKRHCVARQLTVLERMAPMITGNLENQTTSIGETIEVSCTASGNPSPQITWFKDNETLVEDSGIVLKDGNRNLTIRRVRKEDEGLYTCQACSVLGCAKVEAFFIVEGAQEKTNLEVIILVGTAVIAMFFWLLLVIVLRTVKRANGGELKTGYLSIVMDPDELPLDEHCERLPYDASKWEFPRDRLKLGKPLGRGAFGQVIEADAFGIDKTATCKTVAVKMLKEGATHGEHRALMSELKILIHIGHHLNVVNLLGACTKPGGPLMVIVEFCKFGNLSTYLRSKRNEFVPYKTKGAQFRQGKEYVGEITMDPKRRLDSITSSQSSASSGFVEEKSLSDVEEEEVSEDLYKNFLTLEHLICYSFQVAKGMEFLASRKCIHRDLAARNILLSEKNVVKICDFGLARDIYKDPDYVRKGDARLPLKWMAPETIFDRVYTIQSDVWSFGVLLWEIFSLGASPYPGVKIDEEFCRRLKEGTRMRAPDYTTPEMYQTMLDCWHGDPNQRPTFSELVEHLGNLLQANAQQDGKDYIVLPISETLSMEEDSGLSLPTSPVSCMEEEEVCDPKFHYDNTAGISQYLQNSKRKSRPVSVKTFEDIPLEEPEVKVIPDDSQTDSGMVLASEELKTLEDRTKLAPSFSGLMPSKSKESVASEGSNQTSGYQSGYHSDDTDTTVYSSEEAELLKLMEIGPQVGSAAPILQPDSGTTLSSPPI
Procedure: VEGF receptors binding and activation. a) VEGF competitive binding on BAEC. 1 μg of membrane protein was plated with QK and [^125I]-VEGF (500000 cpm, 10^−10 M). b) KDR activation. After stimulation total KDR was immunoprecipitated from a whole-cell protein extracts and phospho-tyrosine was visualized by a specific antibody, anti-rabbit HRP-conjugated secondary antibody and standard chemiluminescence. c) Flt-1 activation. After stimulation total Flt-1 was immunoprecipitated from a whole-cell protein extracts and phospho-tyrosine was visualized by specific antibody, anti-rabbit HRP-conjugated secondary antibody and standard chemiluminescence.
Western blot. Cells were plated on six-well dishes and serum starved overnight. On the next day, cells were treated with different amount of peptide in absence or in presence of VEGF165 for 15 minutes at 37° C. and then dissolved in RIPA-SDS buffer (50 mM Tris-HCl (pH 7.5), 150 mM NaCl, 1% NP-40, 0.25% deoxycholate, 9.4 mg/50 ml sodium orthovanadate, […]). In some experiments, total KDR and Flt-1 were immunoprecipitated from an equal amount of whole-cell protein extracts using protein A/G agarose beads conjugated with antibodies raised against total KDR or Flt-1 (R&D). Proteins from whole-cell extracts or immunocomplexes were resolved by PAGE and transferred to nitrocellulose. […]

WKY rats [2] = assay: Ischemic hindlimb model, digital angiographies and blood flow determination; format: in vivo, rat; conditions: 14 days
BAEC = assay: Cells proliferation assay (cell number); format: cell-based, bovine; conditions: 24 hours
Procedure: Effect of QK on cell proliferation. a) DNA synthesis. BAEC were incubated in DMEM with [^3H]-thymidine and QK in absence or in presence of VEGF165 (100 ng/ml). After 24 hours cells were fixed and lysed. Scintillation liquid was added and [^3H]-thymidine incorporation was evaluated. b) Cell proliferation. BAEC were stimulated with the indicated amount of QK in absence or in presence of VEGF165 (100 ng/ml). Cell number was determined at 24 hours after stimulation. c) RB phosphorylation. p-RB was evaluated at 12 and 18 hours after stimulation with QK (10^-6M), VEGF165 (100 ng/ml) and VEGF 15 (10^−6 M).
Cells proliferation assay. Cells were seeded at a density of 10000 per well in six well plates, serum starved overnight and then stimulated with QK (10-12 to 10^−6 M) in absence or in presence of VEGF165. Cell number was determined at 24 hours after stimulation. The p-RB, was evaluated by western blot 12 and 18 hours after stimulation with QK (10^−6 M), VEGF165 and VEGF 15 (10^−6 M).

Sequence: KLTWQELYQLKYKGI [QK]
- Matrigel plug gross morphology (macroscopic inspection) (WKY rats [1]): contained blood
- peripheral capillaries infiltration of Matrigel plugs (WKY rats [1]; versus VEGF 15 plugs): greater peripheral capillaries infiltration
- phospho-KDR levels (KDR): reduced phospho-KDR below the levels in unstimulated cells
- BEADS Ischemic to non ischemic (WKY rats [2]; dyed beads dilution, muscle ratio, infusion 10^-7 M): 0.98 ± 0.12
- ANGIOGRAPHY Number of TFC (WKY rats [2]; ischemic hindlimb, chronic intrafemoral artery infusion 10^-7 M): 16 ± 2
- cell proliferation (cell number) (BAEC; peptide alone): produces cell proliferation per se
- cell proliferation in presence of VEGF (BAEC; with VEGF165 100 ng/ml): enhances VEGF response
